Experimental findings from ChEMBL document CHEMBL1909590, “Design, synthesis and docking studies of new quinoline-3-carbohydrazide derivatives as antitubercular agents” (2011) are described below.

Values after ≈ are worked out from the molar mass of the structure shown. Where only a bound is given, the exact number is not on record here.

The assay relates to Mycobacterium tuberculosis. As to the kind of experiment: Antimycobacterial activity against isoniazid, rifampicin and ethambuto-resistant Mycobacterium tuberculosis using compound level ranging from 0.3125 to 5 ug/mL after 7 days by resazurin reduction test. Format: functional. The conditions noted are these: 168 h. For orientation: Resazurin is reduced to fluorescent resorufin, in cell work by metabolically active cells.

`Cc1[nH]cnc1/C=N/NC(=O)c1cnc2c(C(F)(F)F)cccc2c1O`: the MIC – broadly, the lowest concentration that inhibits growth of the organism – was over 50 µg/mL.
As to `COc1ccc2[nH]cc(/C=N/NC(=O)c3cnc4c(C(F)(F)F)cccc4c3O)c2c1`, 6.25 µg/mL (≈ 14.6 µM) was the least that counted as inhibitory (MIC).
The same measure for `COC(=O)Cc1cc(/C=N/NC(=O)c2cnc3c(C(F)(F)F)cccc3c2O)co1`: over 50 µg/mL; for `O=C(N/N=C/c1cnc[nH]1)c1cnc2c(C(F)(F)F)cccc2c1O`: over 50 µg/mL; for `Cc1cccc2c(/C=N/NC(=O)c3cnc4c(C(F)(F)F)cccc4c3O)c[nH]c12`: 6.25 µg/mL (≈ 15.2 µM).
With `Cn1nnc2cc(/C=N\NC(=O)c3cnc4c(C(F)(F)F)cccc4c3O)ccc21` the figure was over 50 µg/mL.
The compound `Cn1cccc1/C=N\NC(=O)c1cnc2c(C(F)(F)F)cccc2c1O` showed a minimal inhibitory concentration (MIC) of 6.25 µg/mL (≈ 17.3 µM).
With `COc1ccc(/C=N/NC(=O)c2cnc3c(C(F)(F)F)cccc3c2O)c(F)c1`, it took 6.25 µg/mL (≈ 15.3 µM) to inhibit growth (MIC).
The same measure for `O=C(N/N=C/c1ccc(OC(F)(F)C(F)F)cc1)c1cnc2c(C(F)(F)F)cccc2c1O`: 25 µg/mL (≈ 52.6 µM); for `O=C(N/N=C/c1cc(F)ccc1O)c1cnc2c(C(F)(F)F)cccc2c1O`: over 50 µg/mL.
The same measure for `COc1ccc(/C=N/NC(=O)c2cnc3c(C(F)(F)F)cccc3c2O)cc1`: 12.5 µg/mL (≈ 32.1 µM).
`COc1ccc(/C=N/NC(=O)c2cnc3c(C(F)(F)F)cccc3c2O)cc1O`: the MIC is over 50 µg/mL.
The compound `Cc1ccc(/C=N/NC(=O)c2cnc3c(C(F)(F)F)cccc3c2O)cc1` returned an MIC of over 50 µg/mL.
With `O=C(NNC(=S)Nc1cccc(Cl)c1)c1cnc2c(C(F)(F)F)cccc2c1O` the figure was 25 µg/mL (≈ 56.7 µM).
`O=C(NNC(=S)Nc1ccccc1F)c1cnc2c(C(F)(F)F)cccc2c1O`: the MIC stood at 12.5 µg/mL (≈ 29.5 µM).
Turning to `COc1ccc(NC(=S)NNC(=O)c2cnc3c(C(F)(F)F)cccc3c2O)cc1`, the MIC was over 50 µg/mL.
`Cc1cc(C)cc(NC(=O)NNC(=O)c2cnc3c(C(F)(F)F)cccc3c2O)c1` displayed an MIC of over 50 µg/mL.
The same measure for `O=C(NNC(=O)c1cnc2c(C(F)(F)F)cccc2c1O)Nc1cccc(Cl)c1`: 25 µg/mL (≈ 58.9 µM); for `COc1ccc(NC(=O)NNC(=O)c2cnc3c(C(F)(F)F)cccc3c2O)cc1`: 12.5 µg/mL (≈ 29.7 µM).
With `Cc1ccc(NC(=O)NNC(=O)c2cnc3c(C(F)(F)F)cccc3c2O)cc1` the figure was 25 µg/mL (≈ 61.8 µM); with `CCc1ccc(NC(=O)NNC(=O)c2cnc3c(C(F)(F)F)cccc3c2O)cc1`, over 50 µg/mL; with `NNC(=O)c1ccncc1` [ISONIAZID], 12.5 µg/mL (≈ 91.1 µM).
In turn, `CO[C@H]1/C=C/O[C@@]2(C)Oc3c(C)c(O)c4c(O)c(c(/C=N/N5CCN(C)CC5)c(O)c4c3C2=O)NC(=O)/C(C)=C\C=C\[C@H](C)[C@H](O)[C@@H](C)[C@@H](O)[C@@H](C)[C@H](OC(C)=O)[C@@H]1C` [RIFAMPIN] yielded a minimal inhibitory concentration (MIC) of 25 µg/mL (≈ 30.4 µM).
